# Source: US20250163057A1, “DCN-1 MODULATING COMPOUNDS AND METHODS OF USE THEREOF” (Cellarity, Inc., priority 2023, published 2025)
# Experiments:
# [1] = tested on: fetal hemoglobin gene HBG1; assay: HBG1 Nanostring Assay in CD34+ HSPC erythroid differentiation culture; format: cell-based, human; conditions: for Nanostring Ymax obs (%): relative to a control compound (C1); for EC50: HBG1 induction, Day10 of erythroid differentiation
# Outline: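 HBG1 counts came from direct nCounter hybridization (67° C, 22 h) of day-10 lysates, normalized to ERCC positive controls and a housekeeping gene, giving EC50 and Ymax versus a reference compound. Compounds in 0.1% DMSO were present from day −2 while cells underwent EPO/SCF/IL-3 erythroid differentiation, with IL-3 dropped at day 7, at 37° C.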
# DCN1 protein = DCN1 protein (Homo sapiens (Human), UniProt Q96GG9); assay: Intact Protein MS Analysis with the RapidFire-TOF System (covalent adduct formation); format: binding; conditions: MS Emax; 400 nM DCN1, 3 hours at room temperature
# Sequence of DCN1 protein (Q96GG9 whole entry): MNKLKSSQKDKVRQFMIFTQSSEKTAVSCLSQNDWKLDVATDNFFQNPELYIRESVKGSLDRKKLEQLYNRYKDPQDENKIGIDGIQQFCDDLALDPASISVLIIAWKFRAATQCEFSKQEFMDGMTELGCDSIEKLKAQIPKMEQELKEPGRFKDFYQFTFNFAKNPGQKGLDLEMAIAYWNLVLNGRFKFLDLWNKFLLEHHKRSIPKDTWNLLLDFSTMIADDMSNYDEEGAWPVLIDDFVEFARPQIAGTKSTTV
# Outline: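 Tag-cleaved human DCN1 (400 nM) expressed in E. coli, in 25 mM Tris-HCl, 200 mM NaCl, 1 mM DTT, was incubated with 11 compound concentrations for 3 h at room temperature and quenched with 0.2% formic acid. Intact-protein Q-TOF MS with deconvolution detected the compound adduct mass.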
Compound,Nanostring Ymax obs (%) [1],% Adduct Formation (DCN1 protein),"EC50 ([1]; Homo sapiens, 240 h) [nM]",EC50 [1] [nM]
CCN1C(=O)[C@@H](NC(=O)c2cccc(C(F)(F)F)c2)[C@@H](c2ccc(F)cc2)c2c(C(=O)N3CCC[C@H]3C#N)nn(-c3ccccc3)c21 (mixture of isomers) [Compound I-34],++ (Nanostring Ymax greater than 50.0 and less than or equal to 100.0),+++ (MS Emax % adduct formation greater than 80.0 and less than or equal to 100.0),–,–
CCN1C(=O)[C@@H](NC(=O)c2cccc(C(F)(F)F)c2)[C@@H](C2CC2)c2c(C(=O)N3CCS(=O)(=O)C[C@H]3C#N)nn(C3CCOCC3)c21 (mixture of isomers) [Compound I-379],+++ (Nanostring Ymax greater than 100.0),+++ (MS Emax % adduct formation greater than 80.0 and less than or equal to 100.0),≤ 100,–
"CCN1C(=O)[C@@H](NC(=O)c2cccc(C(F)(F)F)c2)[C@@H](c2ccc(F)cc2)c2c(C(=O)N3CS(=O)(=O)C[C@H]3C#N)nn(C3CCOCC3)c21 (mixture of isomers) [Compound I-661, N-((4S,5S)-3-(4-cyano-1,1-dioxidothiazolidine-3-carbonyl)-7-ethyl-4-(4-fluorophenyl)-6-oxo-1-(tetrahydro-2H-pyran-4-yl)-4,5,6,7-tetrahydro-1H-pyrazolo[3,4-b]pyridin-5-yl)-3-(trifluoromethyl)benzamide]",++ (Nanostring Ymax greater than 50.0 and less than or equal to 100.0),–,≤ 100,–
CCN1C(=O)[C@@H](NC(=O)c2cccc(C(F)(F)F)c2)[C@@H](c2ccc(F)cc2)c2c(CNC(=O)/C=C/C(=O)OC)nn(-c3ccccc3)c21 (racemic) [Compound I-3],+++ (Nanostring Ymax greater than 100.0),+++ (MS Emax % adduct formation greater than 80.0 and less than or equal to 100.0),≤ 100,–
"C=C(CN1CCC1)C(=O)NCc1nn(-c2ccccc2)c2c1[C@H](c1ccc(F)cc1)[C@H](NC(=O)c1cccc(C(F)(F)F)c1)C(=O)N2CC (racemic) [Compound I-49, rac-N-((4R,5R)-3-((2-(azetidin-1-ylmethyl)acrylamido)methyl)-7-ethyl-4-(4-fluorophenyl)-6-oxo-1-phenyl-4,5,6,7-tetrahydro-1H-pyrazolo[3,4-b]pyridin-5-yl)-3-(trifluoromethyl)benzamide]",++ (Nanostring Ymax greater than 50.0 and less than or equal to 100.0),–,–,–
CCN1C(=O)[C@@H](NC(=O)c2cccc(C(F)(F)F)c2)[C@@H](c2ccc(F)cc2)c2c(NC(=O)C3=CCC3)nn(-c3ccccc3)c21 (racemic) [Compound I-152],+++ (Nanostring Ymax greater than 100.0),+ (MS Emax % adduct formation greater than or equal to 0.0 and less than or equal to 30.0),100 to 1000,–
"CCN1C(=O)[C@@H](NC(=O)c2cccc(C(F)(F)F)c2)[C@@H](c2ccc(F)cc2)c2c([C@@H](C)NC#N)nn(-c3ccccc3)c21 [Compound I-73, N-((4S,5S)-3-((R)-1-cyanamidoethyl)-7-ethyl-4-(4-fluorophenyl)-6-oxo-1-phenyl-4,5,6,7-tetrahydro-1H-pyrazolo[3,4-b]pyridin-5-yl)-3-(trifluoromethyl)benzamide]",++ (Nanostring Ymax greater than 50.0 and less than or equal to 100.0),+++ (MS Emax % adduct formation greater than 80.0 and less than or equal to 100.0),≤ 100,–
CCN1C(=O)[C@@H](NC(=O)c2cccc(C(F)(F)F)c2)[C@@H](c2ccc(F)cc2)c2c(CN(C)C#N)nn(-c3ccccc3)c21 [Compound I-92],++ (Nanostring Ymax greater than 50.0 and less than or equal to 100.0),+++ (MS Emax % adduct formation greater than 80.0 and less than or equal to 100.0),–,100 to 1000
CCN1C(=O)[C@@H](NC(=O)c2cccc(C(F)(F)F)c2)[C@@H](c2ccc(F)cc2)c2c(C(=O)NC3(C#N)CC3)nn(-c3ccccc3)c21 [Compound I-112],+++ (Nanostring Ymax greater than 100.0),+++ (MS Emax % adduct formation greater than 80.0 and less than or equal to 100.0),100 to 1000,–
C=C(CN1CCC1)C(=O)NCc1nn(-c2ccccc2)c2c1[C@@H](c1ccc(F)cc1)[C@H](NC(=O)c1cccc(C(F)(F)F)c1)C(=O)N2CC [Compound I-139],++ (Nanostring Ymax greater than 50.0 and less than or equal to 100.0),–,–,–
"CCN1C(=O)[C@@H](NC(=O)c2cccc(C(F)(F)F)c2)[C@@H](c2ccc(F)cc2)c2c(CNC#N)nn(-c3ccccc3)c21 [Compound I-140, N-[(4S, 5S)-3-[(cyanoamino)methyl]-7-ethyl-4-(4-fluorophenyl)-6-oxo-1-phenyl-4,5-dihydropyrazolo[3,4-b]pyridine-5-yl]-3-(trifluoromethyl) benzamide]",++ (Nanostring Ymax greater than 50.0 and less than or equal to 100.0),+++ (MS Emax % adduct formation greater than 80.0 and less than or equal to 100.0),100 to 1000,–
CCN1C(=O)[C@@H](NC(=O)c2cccc(C(F)(F)F)c2)[C@@H](C2CC2)c2c(C(=O)N3CC[C@H](OC)[C@H]3C#N)nn(C3CCOCC3)c21 [Compound I-418],+++ (Nanostring Ymax greater than 100.0),–,≤ 100,–
CCN1C(=O)[C@@H](NC(=O)c2cccc(C(F)(F)F)c2)[C@@H](C2CC2)c2c(C(=O)N(C)[C@H](C)C#N)nn(C3CCOCC3)c21 [Compound I-422],+++ (Nanostring Ymax greater than 100.0),–,100 to 1000,–
"CCc1cccc(C(=O)N[C@@H]2C(=O)N(CC)c3c(c(C(=O)N4[C@H](C#N)C[C@H]5C[C@H]54)nn3C3CCOCC3)[C@@H]2C2CC2)c1 [Compound I-552, N-((4S,5S)-3-((1R,3S,5R)-3-cyano-2-azabicyclo[3.1.0]hexane-2-carbonyl)-4-cyclopropyl-7-ethyl-6-oxo-1-(tetrahydro-2H-pyran-4-yl)-4,5,6,7-tetrahydro-1H-pyrazolo[3,4-b]pyridin-5-yl)-3-ethylbenzamide]",+++ (Nanostring Ymax greater than 100.0),–,≤ 100,–
CCN1C(=O)[C@@H](NC(=O)c2cccc(C(F)(F)F)c2)[C@@H](C2CC2)c2c(C(=O)N3CCNC[C@H]3C#N)nn(C3CCOCC3)c21 [Compound I-582],+++ (Nanostring Ymax greater than 100.0),–,100 to 1000,–
CCN1C(=O)[C@@H](NC(=O)c2cccc(C(F)(F)F)c2)[C@@H](C2CC2)c2c(C(=O)N3CS(=O)(=O)C[C@H]3C#N)nn(C3CCOCC3)c21 [Compound I-617],+ (Nanostring Ymax greater than or equal to 0.0 and less than or equal to 50.0),–,–,–
CCN1C(=O)[C@@H](NC(=O)c2cccc(C(F)(F)F)c2)[C@@H](C2CCC2)c2c(C(=O)N3CCC[C@H]3C#N)nn(C3CCOCC3)c21 [Compound I-692],+++ (Nanostring Ymax greater than 100.0),–,≤ 100,–
